Measurements as given in PubChem BioAssay (NCI).
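1) Cells in 96-well plates. 2) Compound, 48 h, 5 concentrations. 3) Linear interpolation between surrounding doses. 4) Unreached endpoint = highest concentration. Here, GI50 denotes the concentration required for 50% inhibition of growth. Definition used: TGI = concentration required for complete inhibition of growth.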

Experiments:
Assay in all cases: NCI-60 cell line screen, 48 h
[1] = system: A498 renal
[2] = system: OVCAR-3 ovarian
[3] = system: 786-0 renal
[4] = system: SK-OV-3 ovarian
[5] = system: CAKI-1 renal
[6] = system: LOX IMVI melanoma
[7] = system: HOP-92 NSCLC
[8] = system: SF-539 CNS
[9] = system: ACHN renal
[10] = system: RXF 393 renal
[11] = system: HCT-15 colon
[12] = system: COLO 205 colon
[13] = system: SK-MEL-28 melanoma
[14] = system: SK-MEL-2 melanoma
[15] = system: OVCAR-8 ovarian
[16] = system: SNB-19 CNS
[17] = system: SK-MEL-5 melanoma
[18] = system: M14 melanoma
[19] = system: TK-10 renal
[20] = system: HCC-2998 colon
[21] = system: SNB-75 CNS
[22] = system: NCI-H226 lung
[23] = system: NCI-H522 lung
[24] = system: HS 578T breast
[25] = system: MCF7 breast
[26] = system: U251 CNS
[27] = system: SN12C renal
[28] = system: EKVX NSCLC
[29] = system: HOP-62 NSCLC
[30] = system: SF-268 CNS
[31] = system: UACC-62 melanoma
[32] = system: A549 NSCLC
[33] = system: NCI-H23 lung
[34] = system: OVCAR-5 ovarian
[35] = system: BT-549 breast
[36] = system: DU-145 prostate
[37] = system: SF-295 CNS
[38] = system: NCI-H460 lung
[39] = system: K-562 leukemia
[40] = system: OVCAR-4 ovarian
[41] = system: CCRF-CEM leukemia
[42] = system: MDA-MB-231 breast
[43] = system: T-47D breast
[44] = system: UO-31 renal
[45] = system: MDA-MB-435
[46] = system: NCI/ADR-RES ovarian
[47] = system: PC-3 prostate
[48] = system: MOLT-4 leukemia
[49] = system: KM12 colon
[50] = system: UACC-257 melanoma
[51] = system: HT29 colon
[52] = system: SW-620 colon
[53] = system: HCT-116 colon
[54] = system: RPMI-8226 leukemia

With `ClCc1ccccc1Cn1cnc2c(Cl)ncnc21` the GI50 [1] was 17.4 µM, the TGI [1] was 32.2 µM and the GI50 [2] was 1.4 µM. It also gave a TGI [2] of 3.53 µM, a GI50 [3] of 17.7 µM and a TGI [3] of 38.4 µM. The GI50 [4] was 4.19 µM, the TGI [4] was 15.9 µM and the GI50 [5] was 1.83 µM. It also gave a TGI [5] of 4.14 µM, a GI50 [6] of 2.14 µM and a TGI [6] of 5.21 µM. For the same compound, the GI50 [7] was 1.49 µM, the TGI [7] was 4.27 µM and the GI50 [8] was 10.7 µM. For the same compound, the TGI [8] was 24.2 µM, the GI50 [9] was 2.7 µM and the TGI [9] was 6.1 µM. The GI50 [10] was 0.442 µM, the TGI [10] was 2.32 µM and the GI50 [11] was 2.07 µM. For the same compound, the TGI [11] was 4.71 µM, the GI50 [12] was 3.89 µM and the TGI [12] was > 100 µM. It also gave a GI50 [13] of 2.31 µM, a TGI [13] of 5.48 µM and a GI50 [14] of 2.76 µM. It also gave a TGI [14] of 18.1 µM, a GI50 [15] of 2.22 µM and a TGI [15] of 5.21 µM. For the same compound, the GI50 [16] was 5.38 µM, the TGI [16] was > 100 µM and the GI50 [17] was 1.4 µM. It also gave a TGI [17] of 2.88 µM, a GI50 [18] of 1.94 µM and a TGI [18] of 3.74 µM. For the same compound, the GI50 [19] was 23.1 µM, the TGI [19] was 46.7 µM and the GI50 [20] was 1.67 µM. For the same compound, the TGI [20] was 3.54 µM, the GI50 [21] was 2.86 µM and the TGI [21] was 11.1 µM. It also gave a GI50 [22] of 4.59 µM, a TGI [22] of 12.5 µM and a GI50 [23] of 1.82 µM. It also gave a TGI [23] of 7.24 µM, a GI50 [24] of 2.28 µM and a TGI [24] of 6.67 µM. For the same compound, the GI50 [25] was 11.1 µM, the TGI [25] was > 100 µM and the GI50 [26] was 2.65 µM. The TGI [26] was 6.11 µM, the GI50 [27] was 3.37 µM and the TGI [27] was 8.72 µM. The GI50 [28] was 3.11 µM, the TGI [28] was 11 µM and the GI50 [29] was 2.52 µM. It also gave a TGI [29] of 6.03 µM, a GI50 [30] of 3.24 µM and a TGI [30] of 10.9 µM. The GI50 [31] was 3.28 µM, the TGI [31] was 6.66 µM and the GI50 [32] was 7.73 µM. For the same compound, the TGI [32] was 25.8 µM, the GI50 [33] was 2.02 µM and the TGI [33] was 4.34 µM. For the same compound, the GI50 [34] was 2.46 µM, the TGI [34] was 6.53 µM and the GI50 [35] was 2 µM. For the same compound, the TGI [35] was 5.51 µM, the GI50 [36] was 5.65 µM and the TGI [36] was 34.4 µM. The GI50 [37] was 10.5 µM, the TGI [37] was 23.3 µM and the GI50 [38] was 15.4 µM. For the same compound, the TGI [38] was 44.5 µM, the GI50 [39] was 1.2 µM and the TGI [39] was 5.13 µM. The GI50 [40] was 3.39 µM, the TGI [40] was 12.2 µM and the GI50 [41] was 1.28 µM. For the same compound, the TGI [41] was 3.24 µM, the GI50 [42] was 3.04 µM and the TGI [42] was 7.41 µM. For the same compound, the GI50 [43] was 17.9 µM, the TGI [43] was 62 µM and the GI50 [44] was 2.65 µM. It also gave a TGI [44] of 10.4 µM, a GI50 [45] of 3.01 µM and a TGI [45] of 9.49 µM. It also gave a GI50 [46] of 2.21 µM, a TGI [46] of 4.72 µM and a GI50 [47] of 3.03 µM. The TGI [47] was 10.5 µM, the GI50 [48] was 1.6 µM and the TGI [48] was 5.28 µM. For the same compound, the GI50 [49] was 16.6 µM, the TGI [49] was 33.2 µM and the GI50 [50] was 10.7 µM. For the same compound, the TGI [50] was 26.6 µM, the GI50 [51] was 3.56 µM and the TGI [51] was > 100 µM. It also gave a GI50 [52] of 1.78 µM, a TGI [52] of 5.04 µM and a GI50 [53] of 1.91 µM. For the same compound, the TGI [53] was 3.69 µM, the GI50 [54] was 14.1 µM and the TGI [54] was 40.6 µM.
